Test system: E. coli
Assay: Lag phase shortening in E. coli
Assay type: cell-based, Escherichia coli
Details: treatment with algal metabolites
Excerpt: To explore whether lag phase shortening is a general mechanism among bacteria, the inventors tested the effect of methylated compounds in bacteria with different lifestyles. […] Since methylated compounds are a hallmark of photosynthesizing organisms, the inventors next tested a variety of bacteria that are plant-associated. […] Finally, to establish the prevalence of lag phase shortening among bacteria, the inventors tested the model bacterium E. coli. This bacterium is not commonly found associated with photosynthesizing organisms, and thus, is unlikely to respond to algal metabolites. […] The synchrony between specific compounds and different groups of bacteria may reflect the natural context […].

C[S+](C)CCC(=O)[O-] [DMSP, dimethylsulfoniopropionate]
lag phase shortening: did not shorten the lag phase
